According to patent US12091425B2 (AMGEN INC., priority 2016, dated 2024):

Legend:
[1] = biological target: T1, Mcl-1/Bim interaction, recombinant human Mcl-1 (171-327) (Homo sapiens, UniProt Q07820); test: Cell free Mcl-1: Bim Affinity Assay (Mcl-1 HTRF); type: binding
T1 construct: made in house
Summary of the method: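 Read-out is time-resolved FRET after overnight incubation, using a biotin-labelled peptide from human Bim (51-76) as the binding partner; IC50 was derived from competition curves.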

[2] = system: OPM-2 human multiple myeloma cell line; test: Cell Viability Assay (OPM-2 10 FBS); type: cell-based; details: OPM-2 cells, CellTiter-Glo
Summary of the method: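 Plated at 3000 cells/well in 10% FBS complete medium, the cells received a serial compound dilution series and incubated 16 h at 37 °C with 5% CO2. CellTiter-Glo was then added; IC50 values were fitted with a logistic 4-parameter model.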

[3] = TR-FRET, 0.1 nM Mcl-1 (171-327), 0.05 nM biotin-Bim (51-76)
[4] = cell free Mcl-1:Bim TR-FRET, recombinant human Mcl-1 (171-327)
[5] = Homo sapiens, OPM-2, 16 h, 16 h
[6] = Homo sapiens, OPM-2, 16 h, 16 h incubation

T1 sequence (Q07820 171-327): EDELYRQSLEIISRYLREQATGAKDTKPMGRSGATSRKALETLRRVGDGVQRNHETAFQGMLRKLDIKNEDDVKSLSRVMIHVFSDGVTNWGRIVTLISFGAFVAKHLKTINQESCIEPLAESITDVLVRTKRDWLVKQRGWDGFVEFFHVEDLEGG

Row | IC50 [1, 3] [nM] | IC50 [2, 5] [nM] | SMILES | IC50 ([2]; 16 h) [nM] | further results
1 | 0.366 | 2790 | CO[C@H]1/C=C/[C@H](CC#N)C[C@@H](C)S(=O)(=O)NC(=O)c2ccc3c(c2)N(C[C@@H]2CC[C@H]21)C[C@@]1(CCCc2cc(Cl)ccc21)CO3 [Example 203, ((1S,3′R,6′R,7′S,8′E,10′R,12′R)-6-chloro-7′-methoxy-12′-methyl-13′,13′-dioxido-15′-oxo-3,4-dihydro-2H-spiro[naphthalene-1,22′-[20]oxa[13]thia[1,14]diazatetracyclo[14.7.2.0^3,6.0^19,24]pentacosa [8,16,18,24]tetraen]-10′-yl)acetonitrile] | – | –
2 | 0.273 | 430 | O=C1NS(=O)(=O)[C@@H]2CCOC[C@H]2C/C=C/[C@H](O)[C@@H]2CC[C@H]2CN2C[C@@]3(CCCc4cc(Cl)ccc43)COc3ccc1cc32 (single isomer, unassigned) [Example 318] | – | –
3 | 1.13 | 381 | COCCCO[C@H]1/C=C/C[C@H](C)NS(=O)(=O)NC(=O)c2ccc3c(c2)N(C[C@@H]2CC[C@H]21)C[C@@]1(CCCc2cc(Cl)ccc21)CO3 (single isomer, unassigned) [Example 74] | – | –
4 | 0.321 | 444 | C[C@H]1C/C=C/[C@H](O)[C@@H]2CC[C@H]2CN2C[C@@]3(CCCc4cc(Cl)ccc43)COc3ccc(cc32)C(=O)NS(=O)(=O)N1C[C@@H]1CCCO1 (single isomer, unassigned) [Example 49] | – | –
5 | 0.79 | 486 | C[C@H]1C/C=C/[C@H](O)[C@@H]2CC[C@H]2CN2C[C@@]3(CCCc4cc(Cl)ccc43)COc3ccc(cc32)C(=O)NS(=O)(=O)N1C[C@H]1CCCO1 (single isomer, unassigned) [Example 53] | – | –
6 | 0.275 | 280 | COCCN(C)C(=O)CO[C@H]1/C=C/C[C@H](C)[C@@H](C)S(=O)(=O)NC(=O)c2ccc3c(c2)N(C[C@@H]2CC[C@H]21)C[C@@]1(CCCc2cc(Cl)ccc21)CO3 [Example 299, 2-(((1S,3′R,6′R,7′S,8′E,11′S,12′R)-6-chloro-11′,12′-dimethyl-13′,13′-dioxido-15′-oxo-3,4-dihydro-2H-spiro[naphthalene-1,22′-[20]oxa[13]thia[1,14]diazatetracyclo[14.7.2.0^3,6.0^19,24]pentacosa [8,16,18,24]tetraen]-7′-yl)oxy)-N-(2-methoxyethyl)-N-methylacetamide] | – | –
7 | 7.88 | – | C[C@@H]1/C=C/[C@@H](O)[C@@H]2CC[C@H]2CN2C[C@@]3(CCCc4cc(Cl)ccc43)COc3ccc(cc32)C(=O)NS(=O)(=O)C[C@@H]1C (single isomer, unassigned) [Example 1062] | – | IC50 ([2]; 16 h incubation): 12600 nM
8 | 0.536 | – | CC[C@@H]1CC/C=C/[C@H](OCc2nnnn2C)[C@@H]2CC[C@H]2CN2C[C@@]3(CCCc4cc(Cl)ccc43)COc3ccc(cc32)C(=O)NS1(=O)=O [Example 988, (1S,3′R,6′R,7′S,8′E,12′R)-6-chloro-12′-ethyl-7′-((1-methyl-1H-tetrazol-5-yl)methoxy)-3,4-dihydro-2H,15′H-spiro[naphthalene-1,22′-[20]oxa[13]thia[1,14]diazatetracyclo[14.7.2.0^3,6.0^19,24]pentacosa [8,16,18,24]tetraen]-15′-one 13′,13′-dioxide] | – | IC50 [2, 6]: 1000 nM
9 | 9.09 | – | C[C@H]1/C=C/[C@H](O)[C@@H]2CC[C@H]2CN2C[C@@]3(CCCc4cc(Cl)ccc43)COc3ccc(cc32)C(=O)NS(=O)(=O)[C@@H](C)C1 (single isomer, unassigned) [Example 1021] | – | IC50 ([2]; 16 h incubation): 27000 nM
10 | – | 473 | C[C@@H]1[C@@H](C)C/C=C/[C@H](OCCC2CCOCC2)[C@@H]2CC[C@H]2CN2C[C@@]3(CCCc4cc(Cl)ccc43)COc3ccc(cc32)C(=O)NS1(=O)=O [Example 722, (1S,3′R,6′R,7′S,8′E,11′S,12′R)-6-chloro-11′,12′-dimethyl-7′-(2-(tetrahydro-2H-pyran-4-yl)ethoxy)-3,4-dihydro-2H,15′H-spiro [naphthalene-1,22′-[20]oxa[13]thia[1,14]diazatetracyclo [14.7.2.0^3,6.0^19,24]pentacosa[8,16,18,24]tetraen]-15′-one-13′, 13′-dioxide] | – | IC50 [1, 4]: 11.9 nM

The next lines start with the compound.

Row | SMILES | IC50 [1, 3] [nM] | IC50 [2, 5] [nM] | IC50 ([2]; 16 h) [nM] | further results
11 | O=C1NS(=O)(=O)[C@H]2CCCC(C2)[C@H](O)[C@@H]2CC[C@H]2CN2C[C@@]3(CCCc4cc(Cl)ccc43)COc3ccc1cc32 (single isomer, unassigned) [Example 364] | 3.12 | – | 30900 | –
12 | COC(=O)CCC1(C)CCC=CC(O)C2CCC2CN2CC3(CCCc4cc(Cl)ccc43)COc3ccc(cc32)C(=O)NS1(=O)=O (stereo not drawn) [Example 560] | – | 12200 | – | IC50 [1, 4]: 4.83 nM
13 | O=C1NS(=O)(=O)[C@H]2CCC[C@@H](/C=C/[C@H](O)[C@@H]3CC[C@H]3CN3C[C@@]4(CCCc5cc(Cl)ccc54)COc4ccc1cc43)C2 (single isomer, unassigned) [Example 110] | 1.34 | – | 5580 | –
14 | O=C1NS(=O)(=O)[C@H](Cc2nccs2)CC/C=C\[C@H](O)[C@@H]2CC[C@H]2CN2C[C@@]3(CCCc4cc(Cl)ccc43)COc3ccc1cc32 (single isomer, unassigned) [Example 374] | 2.86 | – | 2940 | –
15 | COC(=O)CN[C@H]1/C=C/CC[C@@H](C)S(=O)(=O)NC(=O)c2ccc3c(c2)N(C[C@@H]2CC[C@H]21)C[C@@]1(CCCc2cc(Cl)ccc21)CO3 [Example 599, methyl N-((1S,3′R,6′R,7′S,8′E,12′R)-6-chloro-12′-methyl-13′,13′-dioxido-15′-oxo-3,4-dihydro-2H-spiro[naphthalene-1,22′-[20]oxa[13]thia[1,14]diazatetracyclo[14.7.2.0^3,6.0^19,24]pentacosa [8,16,18,24]tetraen]-7′-yl)glycinate-trifluoroacetic Acid] | – | 652 | – | IC50 [1, 4]: 1.51 nM
16 | C[C@H](O)C[C@@H]1CC/C=C\[C@H](O)[C@@H]2CC[C@H]2CN2C[C@@]3(CCCc4cc(Cl)ccc43)COc3ccc(cc32)C(=O)NS1(=O)=O (single isomer, unassigned) [Example 547] | – | – | 2220 | IC50 [1, 4]: 0.239 nM
17 | CC(C)C[C@@H]1C[C@@H](C)/C=C/[C@H](O)[C@@H]2CC[C@H]2CN2C[C@@]3(CCCc4cc(Cl)ccc43)COc3ccc(cc32)C(=O)NS1(=O)=O (single isomer, unassigned) [Example 480] | – | – | 1080 | IC50 [1, 4]: 0.394 nM
18 | CC[C@@H]1CCCC[C@H](OCC(=O)OC)[C@@H]2CC[C@H]2CN2C[C@@]3(CCCc4cc(Cl)ccc43)COc3ccc(cc32)C(=O)NS1(=O)=O [Example 993, methyl (((1S,3′R,6′R,7′S,12′R)-6-chloro-12′-ethyl-13′,13′-dioxido-15′-oxo-3,4-dihydro-2H-spiro[naphthalene-1,22′-[20]oxa[13]thia[1,14]diazatetracyclo[14.7.2.0^3,6.0^19,24]pentacosa [16,18,24]trien]-7′-yl)oxy)acetate] | 2.01 | – | – | IC50 [2, 6]: 373 nM
19 | Cn1cnc(CO[C@H]2/C=C/C[C@H]3CCC[C@@H]3S(=O)(=O)NC(=O)c3ccc4c(c3)N(C[C@@H]3CC[C@H]32)C[C@@]2(CCCc3cc(Cl)ccc32)CO4)n1 (single isomer, unassigned) [Example 329] | 2.58 | – | 3480 | –
20 | CCC1CCC(OC)C=CC2CCC2CN2CC3(CCCc4cc(Cl)ccc43)COc3ccc(cc32)C(=O)NS1(=O)=O (single isomer, unassigned) [Example 199] | 6.04 | 10200 | – | –
21 | CCC1CCC=CC(OC(C)C(N)=O)C2CCC2CN2CC3(CCCc4cc(Cl)ccc43)COc3ccc(cc32)C(=O)NS1(=O)=O (mixture of isomers) [Example 1006] | 0.81 | – | – | IC50 ([2]; 16 h incubation): 11600 nM
22 | CO[C@H]1/C=C/[C@H](O)[C@@H]2CC[C@H]2CN2C[C@@]3(CCCc4cc(Cl)ccc43)COc3ccc(cc32)C(=O)NS(=O)(=O)[C@@H](C)C1 (single isomer, unassigned) [Example 488] | – | – | 12900 | IC50 [1, 4]: 5.21 nM
23 | CN(C)C(=O)CN1CC/C=C/[C@H](O)[C@@H]2CC[C@H]2CN2C[C@@]3(CCCc4cc(Cl)ccc43)COc3ccc(cc32)C(=O)NS1(=O)=O [Example 24, 2-((1S,3′R,6′R,7′S,8′E)-6-chloro-7′-hydroxy-13′,13′-dioxido-15′-oxo-3,4-dihydro-2H,12′H-spiro[naphthalene-1,22′-[20]oxa[13]thia[1,12,14]triazatetracyclo[14.7.2.0^3,6.0^19,24]pentacosa[8,16,18,24]tetraen]-12′-yl)-N,N-dimethylacetamide] | 0.465 | 683 | – | –
24 | O=C1NS(=O)(=O)[C@H](CC2CCOCC2)CC/C=C/[C@H](O)[C@@H]2CC[C@H]2CN2C[C@@]3(CCCc4cc(Cl)ccc43)COc3ccc1cc32 (single isomer, unassigned) [Example 186] | 7.91 | – | 4660 | –
25 | CCC1CCC=CC(OC(C)C(=O)OC)C2CCC2CN2CC3(CCCc4cc(Cl)ccc43)COc3ccc(cc32)C(=O)NS1(=O)=O (mixture of isomers) [Example 1004] | 0.635 | – | – | IC50 ([2]; 16 h incubation): 23.6 nM
26 | COCCOCC[C@@H]1[C@@H](C)C/C=C/[C@H](O)[C@@H]2CC[C@H]2CN2C[C@@]3(CCCc4cc(Cl)ccc43)COc3ccc(cc32)C(=O)NS1(=O)=O (single isomer, unassigned) [Example 399] | 0.239 | – | 165 | –
27 | CC[C@@H]1[C@@H](OCCOC)C/C=C/[C@H](O)[C@@H]2CC[C@H]2CN2C[C@@]3(CCCc4cc(Cl)ccc43)COc3ccc(cc32)C(=O)NS1(=O)=O (single isomer, unassigned) [Example 470] | – | – | 355 | IC50 [1, 4]: 0.726 nM
